Source: ChEMBL document CHEMBL6177966, “Sclerotiorin-Type Azaphilones Isolated from a Marine-Derived Fungus Microsphaeropsis arundinis P1B” (J Nat Prod, 2025)
The source made the active and inactive calls. The rule behind the calls is not given here.

Legend:
RAW264.7 [1] = assay: Anti-inflammatory activity in LPS-induced mouse RAW264.7 cells assessed as inhibition of NO production; assay type: functional, cell-based
RAW264.7 [2] = assay: Cytotoxicity against mouse RAW264.7 cells assessed as cell viability at 20 to 40 uM incubated for 24 hrs by CCK8 assay; assay type: toxicity, cell-based; conditions: raw264.7, 24 h, dose 20-40 µM
RAW264.7 [3] = assay: Anti-inflammatory activity in LPS-induced mouse RAW264.7 cells assessed as reduction in iNOS level pre-incubated with compound for 1 hr followed by LPS induction and measured after 6 hrs by Western blot analysis; assay type: functional, cell-based; conditions: dose 5-40 µM
RAW264.7 [4] = assay: Anti-inflammatory activity in LPS-induced mouse RAW264.7 cells assessed as downregulation of IL-6 mRNA transcription at 10 to 40 uM pre-incubated with compound for 1 hr followed by LPS induction and measured after 6 hrs by qRT-PCR analysis; assay type: functional, cell-based; conditions: dose 10-40 µM
RAW264.7 [5] = assay: Effect on JNK phosphorylation in LPS-induced mouse RAW264.7 cells at 5 to 40 uM pre-incubated with compound for 1 hr followed by LPS induction and measured after 10 mins by Western blot analysis; assay type: functional, cell-based; conditions: dose 5-40 µM
RAW264.7 [6] = assay: Effect on P38 phosphorylation in LPS-induced mouse RAW264.7 cells at 5 to 40 uM pre-incubated with compound for 1 hr followed by LPS induction and measured after 10 mins by Western blot analysis; assay type: functional, cell-based; conditions: dose 5-40 µM
RAW264.7 [7] = assay: Inhibition of MAPK signalling pathway in LPS-induced mouse RAW264.7 cells assessed as downregulation of ERK1/2 phosphorylation pre-incubated with compound for 1 hr followed by LPS induction and measured after 10 mins by Western blot analysis; assay type: cell-based; conditions: dose 5-40 µM
RAW264.7 [8] = assay: Anti-inflammatory activity in LPS-induced mouse RAW264.7 cells assessed as inhibition of NO production incubated for 24 hrs by Griess reagent based microplate reader analysis; assay type: functional, cell-based; conditions: RAW264.7, 24 h
RAW264.7 [9] = assay: Anti-inflammatory activity in LPS-induced mouse RAW264.7 cells assessed as downregulation of TNF-alpha mRNA transcription at 10 to 40 uM pre-incubated with compound for 1 hr followed by LPS induction and measured after 6 hrs by qRT-PCR analysis; assay type: functional, cell-based; conditions: dose 10-40 µM
RAW264.7 [10] = assay: Anti-inflammatory activity in LPS-induced mouse RAW264.7 cells assessed as downregulation of iNOS mRNA transcription at 10 to 40 uM pre-incubated with compound for 1 hr followed by LPS induction and measured after 6 hrs by qRT-PCR analysis; assay type: functional, cell-based; conditions: dose 10-40 µM
RAW264.7 [11] = assay: Anti-inflammatory activity in LPS-induced mouse RAW264.7 cells assessed as reduction in COX-2 level pre-incubated with compound for 1 hr followed by LPS induction and measured after 6 hrs by Western blot analysis; assay type: functional, cell-based; conditions: dose 5-40 µM

SMILES | Activity (RAW264.7 [2]) | also measured
O=c1c(O)c(-c2ccc(O)c(O)c2)oc2cc(O)cc(O)c12 [QUERCETIN] | – | IC50 (RAW264.7 [1]): 15.3 µM
C[C@H]1CC(=O)O[C@@H]1[C@@](C)(O)/C=C/C1=CC2=CC(=O)[C@](C)(O)[C@@H](O)[C@H]2CO1 | Non-toxic | –
C[C@H]1CC(=O)O[C@@H]1[C@@](C)(O)/C=C/C1=CC2=C(Cl)C(=O)[C@](C)(O)[C@H](O)[C@@H]2CO1 | Non-toxic | –
C[C@H]1CC(=O)O[C@@H]1[C@](C)(O)/C=C/C1=CC2=CC(=O)[C@](C)(O)[C@@H](O)[C@@H]2CO1 | Non-toxic | Activity (RAW264.7 [3]): Dose-dependent-effect; Activity (RAW264.7 [4]): Active; Activity (RAW264.7 [5]): inactive; Activity (RAW264.7 [6]): inactive; inhibition (RAW264.7 [7]): Dose-dependent-effect; IC50 (RAW264.7 [8]): 16.7 µM; Activity (RAW264.7 [9]): Active; Activity (RAW264.7 [10]): Active; Activity (RAW264.7 [11]): Dose-dependent-effect
C[C@H]1CC(=O)O[C@@H]1[C@@](C)(O)/C=C/C1=CC2=CC(=O)[C@](C)(O)[C@@H](O)[C@@H]2CO1 | Non-toxic | –
C[C@H]1CC(=O)O[C@@H]1[C@@](C)(O)/C=C/C1=CC2=CC(=O)[C@](C)(O)[C@@H](O)C2=CO1 | Non-toxic | –
C[C@H]1CCO[C@@H]1[C@](C)(O)/C=C/C1=CC2=CC(=O)[C@](C)(O)[C@@H](O)[C@@H]2CO1 | Non-toxic | –
C[C@H]1CC(=O)O[C@@H]1[C@](C)(O)/C=C/C1=CC2=CC(=O)[C@](C)(O)[C@@H](O)C2=CO1 | Non-toxic | –
C[C@H]1CCO[C@@H]1[C@@](C)(O)/C=C/C1=CC2=CC(=O)[C@](C)(O)[C@@H](O)[C@@H]2CO1 | Non-toxic | –
C[C@H]1CCO[C@@H]1[C@@](C)(O)/C=C/C1=CC2=CC(=O)[C@](C)(O)[C@@H](O)[C@]2(O)CO1 | Non-toxic | –
C[C@H]1CC(=O)O[C@@H]1[C@](C)(O)/C=C/C1=CC2=CC(=O)[C@](C)(O)[C@@H](O)[C@H]2CO1 | Non-toxic | –
C[C@H]1CC(=O)O[C@@H]1[C@](C)(O)/C=C/C1=CC2=C(Cl)C(=O)[C@](C)(O)[C@H](O)[C@@H]2CO1 | Non-toxic | –
C[C@H]1CCO[C@@H]1[C@](C)(O)/C=C/C1=CC2=CC(=O)[C@](C)(O)[C@@H](O)[C@]2(O)CO1 | Non-toxic | –
